Data published in article PMC6273125, “Antioxidant Activity of 3-[N-(Acylhydrazono)ethyl]-4-hydroxy-coumarins” (Molecules, 2016).
Entries after “also recorded” stand apart in the source; their conditions may differ.

Tests used:
[1] = Reducing activity of the DPPH stable free radical (RA%); settings: DPPH 0.05 mM in ethanol; for RA%, 50 μM, 20 min / RA%, 50 μM, 60 min: compound 50 μM; for RA%, 100 µM, 20 min: compound 100 µM; for RA%, 100 μM, 60 min: compound 100 μM
Excerpt: It is well known that the interaction of the synthesized 3-acetyl-4-hydroxycoumarin N-acylhydrazones 2 with the stable free radical DPPH indicates their radical scavenging ability in an iron-free system. […] Considering the antioxidant activity of 3-acetyl-4-hydroxy coumarin (1) it seems to be higher than the hydrazone derivatives 2a–l in both concentrations and in relation with the time and it is correlated with the presence of 3-acetyl and 4-hydroxy groups in the lactone ring and the possibility of tautomers (A–D) formation as shown in Scheme 2. It has been reported that 3-acetyl-4-hydroxycoumarin mainly exists in endocyclic enol form (B) in polar solvents (methanol, ethanol) and it is well known that enols show antioxidant activity e.g., it has been reported that enolic and phenolic hydroxyl groups is beneficial for curcumin to protect erythrocytes against hemin-induced hemolysis and to protect DNA against AAPH-induced oxidation. The lower results of hydrazones 2a–l, are correlated with their stereochemistry which influence their interaction with DPPH.
To an ethanolic solution of DPPH (0.05 mM) in absolute ethanol the new coumarin derivatives dissolved in DMSO were added (final concentration 50 and 100 µM). The mixture was shaken vigorously and allowed to stand for 20 min or 60 min; absorbance at 517 nm was determined spectrophotometrically against the blank and the percentage of reducing activity (RA) was calculated by the formula: RA% = [(A0 − A1)/A0] × 100 where A0 is the absorbance of blank and A1 is the absorbance of the reaction mixture.

[2] = Inhibition of linoleic acid lipid peroxidation induced by AAPH; settings: pH 7.4, 37 °C
Excerpt: AAPH induced linoleic acid oxidation is based on the inhibition of lipid oxidation and provides a measure of how efficiently antioxidants protect against lipid oxidation in vitro. Oxidation of exogenous linoleic acid by a thermal free radical producer (AAPH) is followed by UV spectrophotometry in a highly-diluted sample [36, 42].
Production of conjugated diene hydroperoxide by oxidation of linoleic acid in an aqueous dispersion is monitored at 234 nm. 2,2′-Azobis(2-amidinopropane) dihydrochloride (AAPH) is used as a free radical initiator. Ten microliters of the 16 mM linoleic acid sodium salt solution was added to the UV cuvette containing 930 µL of […] phosphate buffer, pH 7.4 prethermostated at 37 °C. The oxidation reaction was initiated at 37 °C under air by the addition of 50 μL of 40 mM AAPH solution. Oxidation was carried out in the presence of aliquots (10 μL) of the tested coumarins. In the assay without antioxidant, lipid peroxidation was measured in the presence of the same level of DMSO. The rate of oxidation at 37 °C was monitored by recording the increase in absorption at 234 nm caused by conjugated diene hydroperoxides.

[3] = target: T1, soybean lipoxygenase (LOX) (Glycine max, UniProt P08170); experiment: In vitro inhibition of soybean lipoxygenase, UV-absorbance-based enzyme assay; format: biochemical; settings: for IC50 / LOX IC50: soybean lipoxygenase, sodium linoleate, Tris buffer pH 9
T1 construct: purchased Sigma Chemical, Co. (St. Louis, MO, USA)
T1 sequence (P08170 1-839): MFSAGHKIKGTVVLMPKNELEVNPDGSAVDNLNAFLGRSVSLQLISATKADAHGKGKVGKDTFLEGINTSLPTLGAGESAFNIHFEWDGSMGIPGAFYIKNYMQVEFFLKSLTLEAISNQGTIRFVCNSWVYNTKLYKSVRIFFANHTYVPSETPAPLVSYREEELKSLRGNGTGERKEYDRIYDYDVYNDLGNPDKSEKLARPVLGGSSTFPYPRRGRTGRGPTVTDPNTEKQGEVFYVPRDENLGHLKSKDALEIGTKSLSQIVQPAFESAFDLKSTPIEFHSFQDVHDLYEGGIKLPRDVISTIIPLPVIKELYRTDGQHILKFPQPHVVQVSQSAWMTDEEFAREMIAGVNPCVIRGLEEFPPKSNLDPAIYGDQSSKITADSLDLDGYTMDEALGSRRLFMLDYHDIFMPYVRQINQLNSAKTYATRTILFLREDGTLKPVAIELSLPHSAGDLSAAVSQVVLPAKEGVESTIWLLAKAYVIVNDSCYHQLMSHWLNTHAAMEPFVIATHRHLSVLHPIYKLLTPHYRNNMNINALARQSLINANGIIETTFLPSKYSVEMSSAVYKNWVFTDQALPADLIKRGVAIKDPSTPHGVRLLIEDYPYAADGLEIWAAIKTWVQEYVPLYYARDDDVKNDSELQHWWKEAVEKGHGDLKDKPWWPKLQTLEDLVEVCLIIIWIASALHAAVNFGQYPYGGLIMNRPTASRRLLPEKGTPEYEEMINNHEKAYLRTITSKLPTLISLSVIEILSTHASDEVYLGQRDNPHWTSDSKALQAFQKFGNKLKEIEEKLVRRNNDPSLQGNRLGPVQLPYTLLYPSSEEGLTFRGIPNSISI
Method: The tested compounds dissolved in DMSO were incubated at room temperature with sodium linoleate (100 µL) and 200 µL of enzyme solution (1/9 × 10^−4 w/v in saline) in Tris buffer pH 9. The conversion of sodium linoleate to 13-hydroperoxylinoleic acid at 234 nm was recorded and compared with the appropriate standard inhibitor.

[4] = set-up: method as in PMID 1322662; settings: cited from earlier work

Row | IC50 [3] [µM] | melting point [°C] | inhibition at 100 µM [3] [%] | LOX % inhibition ([3]; 100 µM, IC50 not determined) | SMILES | RA%, 50 μM, 20 min [1] [%] | RA%, 50 μM, 60 min [1] [%] | RA%, 100 µM, 20 min [1] [%] | RA%, 100 μM, 60 min [1] [%] | LP 60 s, 100 μM (% inhibition of LP induced by AAPH) [2] [%] | LOX IC50 [3] | antioxidant activity [4]
1 |  | 251 to 252 |  |  | CC(=NNC(=O)c1ccc(C)cc1)c1c(O)c2ccccc2oc1=O [2d, 3-{N-[(4′-Methylbenzoyl)hydrazono]ethyl}-4-hydroxycoumarin] | 7 ± 0.3 | 10 ± 0.2 | 27 ± 2.2 | 27 ± 1.4 | 100 ± 3.2 | do not seem to present any activity; also recorded: No ^c | 
2 | 55 ± 2.1 | 248 to 248.5 |  |  | CC(=NNC(=O)c1ccc(Cl)cc1)c1c(O)c2ccccc2oc1=O [2e, 3-{N-[(4′-Chlorobenzoyl)hydrazono]ethyl}-4-hydroxycoumarin] | 7 ± 0.2 | 10 ± 0.5 | 27 ± 0.9 | 29 ± 0.8 | 94 ± 4.8 |  | 
3 | 46.5 ± 2.3 | 256 to 257 |  |  | CC(=NNC(=O)c1ccc(N)cc1)c1c(O)c2ccccc2oc1=O [2g, 3-{N-[(4′-Aminobenzoyl)hydrazono]ethyl}-4-hydroxycoumarin] | 9 ± 0.3 | 16 ± 0.6 | 27 ± 0.8 | 31 ± 1.4 | 95 ± 7.2 |  | 
4 | 49.5 ± 1.2 | 271 to 272 |  |  | CC(=NNC(=O)c1ccccc1O)c1c(O)c2ccccc2oc1=O [2i, 3-{N-[(2′-Hydroxybenzoyl)hydrazono]ethyl}-4-hydroxycoumarin] | 8 ± 0.5 | 10 ± 0.1 | 27 ± 0.2 | 29 ± 1.7 | 100 ± 8.2 |  | 
5 | 90 ± 5.1 | 254.5 to 255 |  |  | CC(=NNC(=O)c1ccco1)c1c(O)c2ccccc2oc1=O [2j, 3-{N-[(2′-Furoyl)hydrazono]ethyl}-4-hydroxycoumarin] | 4 ± 0.2 | 8 ± 0.3 | 25 ± 1.8 | 27 ± 0.8 | 95 ± 4.1 |  | 
6 | 35 ± 0.2 | 219 |  |  | CC(=NNC(=O)c1ccccc1[N+](=O)[O-])c1c(O)c2ccccc2oc1=O [2l, 3-{N-[(2′-Nitrobenzoyl)hydrazono]ethyl}-4-hydroxycoumarin] | 6 ± 0.3 | 10 ± 0.2 | 27 ± 2.2 | 29 ± 1.0 | 95 ± 6.2 |  | 
7 |  |  | 44 | low inhibitory activity | CC(=O)c1c(O)c2ccccc2oc1=O [compound 1, 3-Acetyl-4-hydroxycoumarin] | 29 ± 0.5 | 31± 0.3 | 36± 1.3 | 36 ± 0.8 |  |  | 

Further lines, the compound ahead of its results:

Row | SMILES | IC50 [3] [µM] | melting point [°C] | inhibition at 100 µM [3] [%] | LOX % inhibition ([3]; 100 µM, IC50 not determined) | RA%, 50 μM, 20 min [1] [%] | RA%, 50 μM, 60 min [1] [%] | RA%, 100 µM, 20 min [1] [%] | RA%, 100 μM, 60 min [1] [%] | LP 60 s, 100 μM (% inhibition of LP induced by AAPH) [2] [%] | LOX IC50 [3] | antioxidant activity [4]
8 | CC(=O)NN=C(C)c1c(O)c2ccccc2oc1=O [2a, 3-[N-(Acetylhydrazono)ethyl]-4-hydroxycoumarin] | 62.5 ± 2.3 | 248 to 249 |  |  | 5 ± 0.2 | 7 ± 0.3 | 23 ± 3.0 | 24 ± 2.0 | 100 ± 9.8 |  | 
9 | CC(=NNC(=O)Cc1ccccc1)c1c(O)c2ccccc2oc1=O [2b, 3-[N-(Phenylacetylhydrazono)ethyl]-4-hydroxycoumarin] | 40 ± 0.5 | 216 to 217 |  |  | 4 ± 0.2 | 7 ± 0.1 | 25 ± 2.0 | 29 ± 1.1 | 100 ± 5.5 |  | 
10 | CC(=NNC(=O)c1ccccc1)c1c(O)c2ccccc2oc1=O [2c, 3-[N-(Benzoylhydrazono)ethyl]-4-hydroxycoumarin] | 58 ± 2.7 |  |  |  | 5 ± 0.1 | 7 ± 0.4 | 25 ± 1.2 | 30 ± 2.8 | 98 ± 5.4 |  | 
11 | CC(=NNC(=O)c1ccc(O)cc1)c1c(O)c2ccccc2oc1=O [2f, 3-{N-[(4′-Hydroxybenzoyl)hydrazono]ethyl}-4-hydroxycoumarin] | 70 ± 4.3 | 287 to 288 |  |  | 10 ± 0.5 | 14 ± 1.2 | 24 ± 2.2 | 26 ± 1.2 | 98 ± 2.9 |  | 
12 | CC(=NNC(=O)c1ccncc1)c1c(O)c2ccccc2oc1=O [2h, 3-[N-(Isonicotinoylhydrazono)ethyl]-4-hydroxycoumarin] |  | 274 |  |  | 5 ± 0.1 | 8 ± 0.2 | 27 ± 1.5 | 31 ± 1.6 | 99 ± 3.7 | do not seem to present any activity; also recorded: No ^c | 
13 | CC(=NNC(=O)c1cccs1)c1c(O)c2ccccc2oc1=O [2k, 3-{N-[(2′-Thienylcarbonyl)hydrazono]ethyl}-4-hydroxycoumarin] | 43.5 ± 3.2 | 228 to 228.5 |  |  | 7 ± 0.1 | 9 ± 0.2 | 25 ± 2.1 | 30 ± 2.2 | 98 ± 3.9 |  | 
14 | O=c1cc(O)c2ccccc2o1 [4-hydroxy coumarin] |  |  |  |  |  |  |  |  |  |  | not found to present any antioxidant activity
15 | CC(Cc1ccc(O)c(O)c1)C(C)Cc1ccc(O)c(O)c1 (centres unmarked) [NDGA, nordihydroguairetic acid, reference compound] |  |  |  |  | 84 ± 2.0 | 83 ± 3.3 | 81 ± 5.2 | 83 ± 4.7 |  |  | 
16 | Cc1c(C)c2c(c(C)c1O)CCC(C)(C(=O)O)O2 (centres unmarked) [TROLOX, trolox, reference compound] |  |  |  |  |  |  |  |  | 63 ± 0.2 |  | 
